# Reference: the METLIN SMRT retention time set (Domingo-Almenara et al. 2019)
# Experiment: gradient 5% acetonitrile 3 min, to 50% in 2 min, to 85% in 15 min, held 3 min, 100 µL/min
# Conditions: column: Zorbax Extend-C18 2.1 x 50 mm; eluents: water / acetonitrile, 0.1% formic acid
# In short: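 Standards, all pure, were combined into mixtures of ~100 molecules and run at 100 μL/min on a Zorbax Extend-C18 column (2.1 × 50 mm, 1.8 μm) with water and acetonitrile, each containing 0.1% formic acid. A coupled quadrupole time-of-flight mass spectrometer operated in positive and negative ionization mode. Retention time values come from computationally picked adduct peaks, each inspected manually.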
row,SMILES,RP-LC retention time [s]
1,COc1cc(NC(=O)CN2C(=O)C3CCCCN3c3ccc(C(=O)N(C)C)cc32)cc(OC)c1OC (stereo unspecified),734
2,COc1ccc(Cl)cc1NC(=O)c1nc2nc(C)cc(C(F)F)n2n1,959
3,COc1ccc(-c2cc(N3CCC(NC(=O)c4ccc(OC)cc4OC)C3)n[nH]2)cc1 (stereo unspecified),705
4,Cc1cnc(-c2ccccc2)n1CCNS(=O)(=O)c1ccc2c(c1)CCC2,689
5,CCCCN(C)C(=O)Cn1c(C2CC(=O)N(C3CCCC3)C2)nc2ccccc21 (stereo unspecified),680
6,COc1ccc(Cc2nc(-c3ccc4oc(C)nc4c3)no2)cc1OC,892
7,CCOC(=O)c1noc2ncnc(N3CCc4ccccc4C3)c12,1010
8,Cc1ccccc1CN1C(=O)CN(S(=O)(=O)c2ccccc2)CC1(C)C(=O)NC1CCCCC1 (stereo unspecified),1020
9,Cc1cc2nn(CC(=O)Nc3cc(F)ccc3C)c(=O)n2c(-c2ccccc2)n1,627
10,COc1cc(Br)c(C2C(C(=O)N3CCOCC3)=C(C)NC3=C2C(=O)CCC3)cc1OC (stereo unspecified),618
11,Cn1cc2c3c(cccc31)CN(C(=O)c1c(F)cccc1F)CC2,920
12,CC1=C(c2ccc(C)c(C)c2)S(=O)(=O)N=C1N1CCC(NC(=O)C2CCOC2)CC1 (stereo unspecified),747
13,Cn1ccc2c(cc(C(=O)NCc3cccc(Br)c3)n2C)c1=O,733
14,CSc1cccc(NC(=O)CCc2c(-c3ccc(F)cc3)nc3ccccn23)c1,713
15,Cc1cc(F)ccc1NS(=O)(=O)c1cc(-c2nc(C(C)(C)C)cs2)cs1,1260
16,NC1=NC(=O)/C(=C/c2ccccc2OCC(=O)Nc2ccc(F)cc2)S1,660
17,COc1ccc(-c2nnc(-c3ccc(C)c(S(=O)(=O)N4CCCCCC4)c3)o2)cc1,1150
18,O=C(NCc1cccs1)c1ccc(-n2nc(N3CCCC3)ccc2=O)cc1,765
19,Cc1nc2c(C)cccn2c(=O)c1NC(=O)COc1ccc(Cl)cc1Cl,838
20,Cc1nn(-c2ccccc2)c2c1N(CC(=O)N1CCN(c3ccc(F)cc3)CC1)C(=O)CS2,915
21,CC(=O)c1ccc(NS(C)(=O)=O)c(Oc2ccc(F)cc2F)c1,954
22,O=C(NCc1ccccn1)c1cn(-c2cc(N3CCOCC3)ncn2)cn1,581

row,SMILES,RP-LC retention time [s]
1,COc1ccccc1CNS(=O)(=O)c1cc2c(s1)CCN(C(=O)C1CCC1)C2,877
2,O=C(Cc1ccc(S(=O)(=O)N2CCN(c3ccccn3)CC2)s1)N1CCCC1,615
3,CCOCCCNC(=O)N1CCN(c2nnc(C)c3c(C)n(-c4ccc(C)cc4)nc23)CC1,669
4,O=C([C@@H]1C[C@H](F)CN1S(=O)(=O)Cc1ccccc1)N1CCOCC1,692
5,CCOC(=O)c1ccc(Nc2c(-c3ccc(N4CCOCC4)cc3)nc3cnccn23)cc1,795
6,Cc1cccc(NC(=O)N2CCC(OC3CCN(S(C)(=O)=O)CC3)CC2)c1C,718
7,Cc1cc(C)cc(-n2ccnc(NC(=O)Nc3cccc(F)c3)c2=O)c1,1020
8,CCOC(=O)N1CCN(C(=O)Nc2nc(CC(=O)NC3CCCCCC3)cs2)CC1,704
9,Cc1ccc(CNC(=O)C2CCCN(c3nnc4ccccn34)C2)cc1 (stereo unspecified),705
10,CC1(c2noc(C3CC3)n2)CCN(C(=O)CCc2cc(Cl)no2)CC1,853
11,CC(C)Sc1nnc(N2CCN(c3ccc(F)cc3)CC2)s1,1000
12,Cc1cccn2cc(-c3cccc(NS(=O)(=O)c4ccc(Br)cc4)c3)nc12,700
13,COc1cc2c(cc1CNC(=O)COc1ccc(Cl)c(C)c1)OCCCO2,1010
14,COc1cccc(NC(=O)C2CCN(S(=O)(=O)c3cc(-c4noc(C)n4)cs3)CC2)c1,883
15,CCN1C(=O)C(C)(C(=O)Nc2ccc(OC)c(Cl)c2)Oc2cccnc21 (stereo unspecified),895
16,CCNC(=O)CC1=C2CCCCC2NC1=O (stereo unspecified),592
17,O=C1CCCc2cc(S(=O)(=O)Nc3ccc(CN4CCCCC4)cc3)ccc2N1,597
18,O=S(=O)(c1cccc(C(F)(F)F)c1)N1CCC2(CCN(c3cccnc3)C2)C1 (stereo unspecified),702
19,COc1ccc(-n2nc(C(=O)N3CCC(C(N)=O)CC3)c(=O)cc2OC)cc1OC,588
20,Cc1ccn2cc(-c3ccc(C)c(NS(=O)(=O)c4ccccc4)c3)nc2c1,655
21,Cc1cn(C)c(CC(=O)NCCCN2CCCCCC2)c1C(=O)O,593
22,CSc1cccc(NC(=O)CN2C(=O)C3CCCCN3c3ccc(C(=O)N4CCCC4)cc32)c1 (stereo unspecified),869

row,SMILES,RP-LC retention time [s]
1,COc1cccc(CNC(=O)Cn2ncc3c(c2=O)N(C2CC2)C(=O)CS3)c1,671
2,O=S(=O)(c1ccc(F)cc1)N1[C@H]2CC[C@@H]1c1cncnc1C2,709
3,COc1ccc(CC(=O)N2CCc3c(c(CO)nn3CC3CC3)C2)cc1,715
4,Cc1cc(-c2nn3c(COc4ccccc4)nnc3s2)no1,855
5,CCCNC(=O)NCCC1CCN(S(=O)(=O)c2ccc(C)cc2)CC1,742
6,CCOC(=O)c1cnc2nc(C)ccc2c1Nc1cc(F)ccc1F,726
7,COc1ccccc1-c1cc(C(=O)N2CCN(c3cc(=O)n(C(C)C)c(=O)n3C(C)C)CC2)[nH]n1,861
8,CCOc1ccc(NC(=O)Nc2cc(C(C)C)c(O)cc2C)cc1,909
9,CC(C)(C)c1ccc(-c2noc(CN3C(=O)COc4cc(Cl)ccc43)n2)cc1,1360
10,CC(C)c1ccc(Nc2c(-c3cc(Br)ccc3O)nc3ncccn23)cc1,1190
11,Cc1noc(-c2nn(C)c3c2CN(C(=O)NCc2ccc(F)cc2)CC3)n1,699
12,CCCn1c(=O)c(C)nc2cc(-c3noc(-c4ccc(OCC)cc4)n3)ccc21,1290
13,O=C(Cn1c(=O)oc2ccccc21)Nc1nc(-c2ccc(Br)cc2)cs1,1050
14,Cc1nn(CC(=O)NCCN(C)C)c(=O)c2nc(-c3ccccc3)sc12,601
15,O=C(C1CCN(c2nccnc2Sc2ccccc2)CC1)N1CCOCC1,798
16,O=C(Nc1nnc(C(F)(F)F)s1)C1CCN(C(=O)c2ccc(F)cc2)CC1,815
17,CN(C)C(=O)Cn1cnc2ccccc2c1=O,583
18,CCCNC(=O)N1CCC2(CC1)NCCc1c2[nH]c2ccccc12,613
19,Cc1cccnc1Nc1nc(-c2ccc(F)cc2)cs1,870
20,Cc1ccc(NC(=O)N2CCC(CC(=O)N3CCCCC3)CC2)cc1Cl,861
21,CC1=C(c2ccc(C)c(C)c2)S(=O)(=O)N=C1N1CCC(C(=O)NCCc2ccco2)CC1,884
22,Cc1cc2c(=O)n(CC(=O)Nc3ccc(F)cc3)c3cccnc3n2n1,689
